In US4774330A, “Cephalosporin intermediates” (Hoffmann-La Roche Inc., priority 1980, dated 1988):
Counter-ions that a name gives are not always drawn. Like-named read-outs stand apart in the source and are kept apart here.

What was measured:
Streptococcus pyogenes [1] = test: s.c. treatment of mice before i.p. infection, Streptococcus pyogenes; type: in vivo; conditions: sc, 5 hours before i.p. infection
Description: (§1) The long retention of the products in accordance with the invention in the organism is also evident after the s.c. treatment of mice with product A or C 5 hours before a i.p. infection with the microorganism to be tested, the following Ed50 values being ascertained: […]

Escherichia coli [2] = test: s.c. treatment of mice before i.p. infection, Escherichia coli; type: in vivo; conditions: sc, administered 24 hours before the infection
Description: The long retention of the products in accordance with the invention in the organism is also evident after the s.c. treatment of mice with product A or C 5 hours before a i.p. infection with the microorganism to be tested, the following Ed50 values being ascertained: | *Administered 24 hours before the infection.

Staphylococcus aureus = test: MIC in vitro, Staphylococcus aureus; type: cell-based
Description: (§2) The following products were tested:
(§3) The following results relate to the minimum inhibitory concentration (MIC) in vitro (μg/ml): […]

Escherichia coli [3] = test: MIC in vitro, Escherichia coli; type: cell-based
Description: as §2, §3

Klebsiella pneumoniae = test: MIC in vitro, Klebsiella pneumoniae; type: cell-based
Description: as §2, §3

Serratia marcescens [4] = test: MIC in vitro, Serratia marcescens; type: cell-based
Description: as §2, §3

Enterobacter cloacae = test: MIC in vitro, Enterobacter cloacae; type: cell-based
Description: as §2, §3

Citrobacter freundii = test: MIC in vitro, Citrobacter freundii; type: cell-based
Description: as §2, §3

Proteus vulgaris = test: MIC in vitro, Proteus vulgaris; type: cell-based
Description: as §2, §3

Proteus morganii = test: MIC in vitro, Proteus morganii; type: cell-based; conditions: Morganella morganii
Description: as §2, §3

Proteus rettgeri = test: MIC in vitro, Proteus rettgeri; type: cell-based; conditions: Providencia rettgeri
Description: as §2, §3

Proteus inconstans = test: MIC in vitro, Proteus inconstans; type: cell-based; conditions: Providencia alcalifaciens
Description: as §2, §3

Proteus mirabilis = test: MIC in vitro, Proteus mirabilis; type: cell-based
Description: as §2, §3

[5] = system: Staphylococcus epidermidis; test: MIC in vitro, Staphylococcus epidermidis; type: cell-based
Description: as §2, §3

Streptococcus faecalis = test: MIC in vitro, Streptococcus faecalis; type: cell-based; conditions: Enterococcus faecalis
Description: as §2, §3

Streptococcus pyogenes [6] = test: MIC in vitro, Streptococcus pyogenes; type: cell-based
Description: as §2, §3

Streptococcus pneumoniae = test: MIC in vitro, Streptococcus pneumoniae; type: cell-based
Description: as §2, §3

Streptococcus viridans = test: MIC in vitro, Streptococcus viridans; type: cell-based
Description: as §2, §3

Enterobacter aerogenes = test: MIC in vitro, Enterobacter aerogenes; type: cell-based; conditions: Klebsiella aerogenes
Description: as §2, §3

[7] = toxicity, 24 hours values; type: in vivo; conditions: 24 hours value; for MTD at 24 h: in vivo, read-out: Tolerated dosage
Description: The compounds in accordance with the invention are non-toxic, as will be evident from the following data for the 24 hours values of products A and B: […]

Pseudomonas aeruginosa = test: MIC in vitro, Pseudomonas aeruginosa; type: cell-based
Description: as §2, §3

Neisseria meningitidis = test: MIC in vitro, Neisseria meningitidis; type: cell-based
Description: as §2, §3

Neisseria gonorrhoeae = test: MIC in vitro, Neisseria gonorrhoeae; type: cell-based
Description: as §2, §3

Haemophilus influenzae = test: MIC in vitro, Haemophilus influenzae; type: cell-based
Description: as §2, §3

[8] = half-life in vivo after i.v. administration; conditions: rat, plasma, iv; 20 mg i.v., rats
Source text: The compounds of formula I as well as the corresponding readily hydrolyzable esters, readily hydrolyzable ethers and salts and the hydrates of same have antibiotic, especially bactericidal, activity.

Serratia marcescens [9] = test: s.c. treatment of mice before i.p. infection, Serratia marcescens; type: in vivo; conditions: sc, 5 hours before i.p. infection
Description: as §1

Cn1nc(OCOC(=O)C(C)(C)C)c(=O)nc1SCC1=C(C(=O)OCOC(=O)C(C)(C)C)N2C(=O)[C@@H](NC(=O)/C(=N\O)c3csc(N)n3)[C@H]2SC1 [Product C, Methylene-(6R,7R)-7-[2-(2-amino-4-thiazolyl)-2-(Z-hydroxyimino)acetamido]-3-[[[2,5-dihydro-2-methyl-5-oxo-6-[(pivaloyloxy)methoxy]-as-triazin-3-yl]thio]methyl]-8-oxo-5-thia-1-azabicyclo[4.2.0]-oct-2-ene-2-carboxylate pivalate]
ED50 (Streptococcus pyogenes [1]): 0.45 mg/kg | ED50 (Escherichia coli [2]): 5.6 mg/kg

Cn1nc(OCOC(=O)C(C)(C)C)c(=O)nc1SCC1=C(C(=O)O)N2C(=O)[C@@H](NC(=O)/C(=N\O)c3csc(N)n3)[C@H]2SC1 [Product B, (6R,7R)-7-[2-(2-Amino-4-thiazolyl)-2-(Z-hydroxyimino)acetamindo]-3-[[[2,5-dihydro-2-methyl-5-oxo-6-[(pivaloyloxy)methoxy]-as-triazin-3-yl]thio]methyl]-8-oxo-5-thia-1-azabicyclo[4.2.0]oct-2-ene-2-carboxylic acid sodium salt]
MIC (Staphylococcus aureus; strain 3): 0.4 µg/mL | MIC (Staphylococcus aureus; strain 4): 0.8 µg/mL | MIC (Staphylococcus aureus; strain 5): 0.4 µg/mL | MIC (Staphylococcus aureus; strain 6): 0.8 µg/mL | MIC (Escherichia coli [3]; strain 5): 0.4 µg/mL | MIC (Escherichia coli [3]; strain 6): 0.2 µg/mL | MIC (Escherichia coli [3]; strain 7): 0.05 µg/mL | MIC (Escherichia coli [3]; strain 8): 0.8 µg/mL | MIC (Klebsiella pneumoniae; strain 2): 1.6 µg/mL | MIC (Klebsiella pneumoniae; strain 3): 0.4 µg/mL | MIC (Klebsiella pneumoniae; strain 4): 0.8 µg/mL | MIC (Serratia marcescens [4]; strain 10): 6.3 µg/mL | MIC (Serratia marcescens [4]; strain 11): 12.5 µg/mL | MIC (Serratia marcescens [4]; strain 12): 1.6 µg/mL | MIC (Enterobacter cloacae; strain 3): > 25 µg/mL | MIC (Enterobacter cloacae; strain 4): 6.3 µg/mL | MIC (Citrobacter freundii; strain 2): 3.1 µg/mL | MIC (Citrobacter freundii; strain 3): 0.4 µg/mL | MIC (Proteus vulgaris; strain 4): 12.5 µg/mL | MIC (Proteus vulgaris; strain 5): 0.8 µg/mL | MIC (Proteus vulgaris; strain 6): 0.8 µg/mL | MIC (Proteus morganii; strain 2): 1.6 µg/mL | MIC (Proteus rettgeri; strain 2): 0.4 µg/mL | MIC (Proteus inconstans; strain 2): 0.2 µg/mL | MIC (Proteus inconstans; strain 3): ≤ 0.025 µg/mL | MIC (Proteus mirabilis; strain 2): 0.4 µg/mL | MIC (Proteus mirabilis; strain 3): 1.6 µg/mL | MIC (Proteus mirabilis; strain 4): 0.8 µg/mL | MIC [5]: 0.4 µg/mL | MIC (Streptococcus faecalis; strain 1): 6.3 µg/mL | MIC (Streptococcus faecalis; strain 2): > 25 µg/mL | MIC (Streptococcus pyogenes [6]; strain 1): 0.025 µg/mL | MIC (Streptococcus pyogenes [6]; strain 2): 0.025 µg/mL | MIC (Streptococcus pneumoniae): 0.1 µg/mL | MIC (Streptococcus viridans): 0.4 µg/mL | MIC (Enterobacter aerogenes; strain 1): 0.2 µg/mL | MIC (Enterobacter aerogenes; strain 2): 1.6 µg/mL | MTD at 24 h ([7]; sc, subcutaneous): > 4000 mg/kg | MTD at 24 h ([7]; oral): > 5000 mg/kg

Cn1nc(O)c(=O)nc1SCC1=C(C(=O)O)N2C(=O)[C@@H](NC(=O)/C(=N\O)c3csc(N)n3)[C@H]2SC1 [Product A, (6R,7R)-7-[2-(2-Amino-4-thiazolyl)-2-(Z-hydroxyimino)acetamido]-3-/[(2,5-dihydro-6-hydroxy-2-methyl-5-oxo-as-triazin-3-yl)thio]methyl/-8-oxo-5-thia-1-azabicyclo[4.2.0]oct-2-ene-2-carboxylic acid disodium salt]
MIC (Staphylococcus aureus; strain 1): 0.62 µg/mL | MIC (Staphylococcus aureus; strain 2: β-lactamase producing): 1.2 µg/mL | MIC (Staphylococcus aureus; strain 3): 1.6 µg/mL | MIC (Staphylococcus aureus; strain 4): 1.6 µg/mL | MIC (Staphylococcus aureus; strain 5): 1.6 µg/mL | MIC (Staphylococcus aureus; strain 6): 3.1 µg/mL | MIC (Escherichia coli [3]; strain 1): 1.2 µg/mL | MIC (Escherichia coli [3]; strain 2): 1.2 µg/mL | MIC (Escherichia coli [3]; strain 3): 2.5 µg/mL | MIC (Escherichia coli [3]; strain 4): 0.31 µg/mL | MIC (Escherichia coli [3]; strain 5): 0.4 µg/mL | MIC (Escherichia coli [3]; strain 6): 0.2 µg/mL | MIC (Escherichia coli [3]; strain 7): 0.025 µg/mL | MIC (Escherichia coli [3]; strain 8): 0.05 µg/mL | MIC (Klebsiella pneumoniae; strain 1): 0.02 µg/mL | MIC (Klebsiella pneumoniae; strain 2): 0.1 µg/mL | MIC (Klebsiella pneumoniae; strain 3): 0.025 µg/mL | MIC (Klebsiella pneumoniae; strain 4): 0.05 µg/mL | MIC (Serratia marcescens [4]; strain 1): 0.16 µg/mL | MIC (Serratia marcescens [4]; strain 2): 0.31 µg/mL | MIC (Serratia marcescens [4]; strain 3): 0.31 µg/mL | MIC (Serratia marcescens [4]; strain 4): 0.63 µg/mL | MIC (Serratia marcescens [4]; strain 5): 0.31 µg/mL | MIC (Serratia marcescens [4]; strain 6): 0.31 µg/mL | MIC (Serratia marcescens [4]; strain 7): 0.31 µg/mL | MIC (Serratia marcescens [4]; strain 8): 0.31 µg/mL | MIC (Serratia marcescens [4]; strain 9): 0.16 µg/mL | MIC (Serratia marcescens [4]; strain 10): 0.8 µg/mL | MIC (Serratia marcescens [4]; strain 11): 6.3 µg/mL | MIC (Serratia marcescens [4]; strain 12): 0.1 µg/mL | MIC (Enterobacter cloacae; strain 1): 20 µg/mL | MIC (Enterobacter cloacae; strain 2): > 80 µg/mL | MIC (Enterobacter cloacae; strain 3): > 25 µg/mL | MIC (Enterobacter cloacae; strain 4): 12.5 µg/mL | MIC (Citrobacter freundii; strain 1): 80 µg/mL | MIC (Citrobacter freundii; strain 2): 6.3 µg/mL | MIC (Citrobacter freundii; strain 3): 0.2 µg/mL | MIC (Proteus vulgaris; strain 1): 0.31 µg/mL | MIC (Proteus vulgaris; strain 2): 0.31 µg/mL | MIC (Proteus vulgaris; strain 3): 0.63 µg/mL | MIC (Proteus vulgaris; strain 4): 3.1 µg/mL | MIC (Proteus vulgaris; strain 5): 0.1 µg/mL | MIC (Proteus vulgaris; strain 6): 0.05 µg/mL | MIC (Proteus morganii; strain 1): ≤ 0.04 µg/mL | MIC (Proteus morganii; strain 2): 0.05 µg/mL | MIC (Proteus rettgeri; strain 1): 0.63 µg/mL | MIC (Proteus rettgeri; strain 2): 0.05 µg/mL | MIC (Proteus inconstans; strain 1): 0.08 µg/mL | MIC (Proteus inconstans; strain 2): 0.01 µg/mL | MIC (Proteus inconstans; strain 3): ≤ 0.025 µg/mL | MIC (Proteus mirabilis; strain 1): 0.02 µg/mL | MIC (Proteus mirabilis; strain 2): 0.025 µg/mL | MIC (Proteus mirabilis; strain 3): 0.05 µg/mL | MIC (Proteus mirabilis; strain 4): 0.025 µg/mL | MIC (Pseudomonas aeruginosa; strain 1): > 80 µg/mL | MIC (Pseudomonas aeruginosa; strain 2): > 80 µg/mL | MIC (Pseudomonas aeruginosa; strain 3): 40 µg/mL | MIC (Pseudomonas aeruginosa; strain 4): 80 µg/mL | MIC (Pseudomonas aeruginosa; strain 5): > 80 µg/mL | MIC (Pseudomonas aeruginosa; strain 6): 10 µg/mL | MIC (Pseudomonas aeruginosa; strain 7): 5 µg/mL | MIC (Pseudomonas aeruginosa; strain 8): 20 µg/mL | MIC (Pseudomonas aeruginosa; strain 9): > 80 µg/mL | MIC (Pseudomonas aeruginosa; strain 10): 10 µg/mL | MIC (Pseudomonas aeruginosa; strain 11): 5 µg/mL | MIC (Pseudomonas aeruginosa; strain 12): > 80 µg/mL | MIC (Pseudomonas aeruginosa; strain 13): 80 µg/mL | MIC (Pseudomonas aeruginosa; strain 14): > 80 µg/mL | MIC (Pseudomonas aeruginosa; strain 15): 80 µg/mL | MIC (Pseudomonas aeruginosa; strain 16): > 80 µg/mL | MIC (Pseudomonas aeruginosa; strain 17): > 80 µg/mL | MIC (Neisseria meningitidis; strain 1): 0.0025 µg/mL | MIC (Neisseria meningitidis; strain 2): 0.0025 µg/mL | MIC (Neisseria meningitidis; strain 3): 0.0025 µg/mL | MIC (Neisseria meningitidis; strain 4): 0.0012 µg/mL | MIC (Neisseria gonorrhoeae; strain 1): 0.0012 µg/mL | MIC (Neisseria gonorrhoeae; strain 2): 0.0012 µg/mL | MIC (Neisseria gonorrhoeae; strain 3): 0.02 µg/mL | MIC (Neisseria gonorrhoeae; strain 4): 0.01 µg/mL | MIC (Neisseria gonorrhoeae; strain 5): 0.04 µg/mL | MIC (Neisseria gonorrhoeae; strain 6): 0.0006 µg/mL | MIC (Haemophilus influenzae; strain 1): 0.63 µg/mL | MIC (Haemophilus influenzae; strain 2): 0.04 µg/mL | MIC (Haemophilus influenzae; strain 3): 0.04 µg/mL | MIC (Haemophilus influenzae; strain 4): 0.04 µg/mL | MIC (Haemophilus influenzae; strain 5): 0.04 µg/mL | MIC (Haemophilus influenzae; strain 6): 0.02 µg/mL | MIC (Haemophilus influenzae; strain 7): 0.04 µg/mL | MIC [5]: 1.6 µg/mL | MIC (Streptococcus faecalis; strain 1): 25 µg/mL | MIC (Streptococcus faecalis; strain 2): > 25 µg/mL | MIC (Streptococcus pyogenes [6]; strain 1): 0.1 µg/mL | MIC (Streptococcus pyogenes [6]; strain 2): 0.05 µg/mL | MIC (Streptococcus pneumoniae): 0.4 µg/mL | MIC (Streptococcus viridans): 1.6 µg/mL | MIC (Enterobacter aerogenes; strain 1): 0.1 µg/mL | MIC (Enterobacter aerogenes; strain 2): 0.8 µg/mL | half-life [8]: 2.33 h | ED50 (Streptococcus pyogenes [1]): 0.15 mg/kg | ED50 (Serratia marcescens [9]): 0.89 mg/kg | MTD at 24 h ([7]; intravenous): 500 mg/kg | MTD at 24 h ([7]; oral): 5000 mg/kg | Lethal dosage ([7]; intravenous): 1000 mg/kg | Lethal dosage ([7]; oral): > 5000 mg/kg | Lethal dosage ([7]; subcutaneous): > 4000 mg/kg
